Results on 14 compounds are retold here after patent US8148371B2, “Adenine compound and use thereof” (Dainippon Sumitomo Pharma Co., Ltd., priority 2002, dated 2012).

Where two headings read alike, the source gives them in different places. Marks after values point to notes of the source that are not given here.

One series deals with leucocytes in BALF. The series is described as follows: Amount of leucocytes in bronchoalveolar lavage fluid (BALF) on an asthma modeled mouse. Format: in vivo, C57BL/6 mouse. The settings on record: 10 mg/kg nasally, BALF 18 hours after ovalbumin challenge. The protocol: (§1) C57BL/6 mouse was immunized by dermally administering denatured ovalbumin by heating (40 mg). Fourteen days later after the first immunization, ovalbumin (100 μg) was nasally busted. Twenty one days later after the first immunization, the solution (1 ml/kg) prepared by suspending the test compound (10 mg/kg) in physiological saline was nasally administered (10 μl/10 g/body weight). After 2 hours ovalbumin (100 μg) was nasally challenged. After 18 hours, bronchoalveolar lavege fluid (BALF) was collected, and the total number of leucocytes in BALF and fractioned leukocyte in the cytospin sample were measured. By ELISA method, IL-4 and IL-5 in the supernatant were measured. The number of leucocytes (inhibition %) was shown in Table 5 and the production inhibition activity of IL-4 and IL-5 (inhibition % to control) was shown in Table 6.

A further series concerns IL-5. The series is described as follows: IL-5 in BALF supernatant on an asthma modeled mouse (ELISA). Format: in vivo, C57BL/6 mouse. The following applies: 10 mg/kg nasally. The protocol: as §1
The subject of the next series is IL-4. The series is described as follows: IL-4 in BALF supernatant on an asthma modeled mouse (ELISA). The following applies: 10 mg/kg nasally. Format: in vivo, C57BL/6 mouse. The protocol: as §1
Another series concerns cells of mouse spleen. The series is described as follows: cells. Format: cell-based, C3H/HeJ mouse. The following applies: for minimal effective concentration: Mus musculus, 24 h, read-out: Minimum effective concentration (interferon inducing activity).
In another series the test system is plasma esterase. The following applies: rat plasma, 37° C., 15 minutes.
Another series relates to cells of rat spleen. The series is described as follows: cells. Format: cell-based, SD rat. The settings on record: 24 h, read-out: Minimum effective concentration (interferon inducing activity).
A short description of series [1]: Metabolic stability on liver S9 of rat. The settings on record: 37° C.
Protocol: The compound of the present invention is added to liver S9 solution, and the mixture is incubated at 37±0.5° C. for 5 minutes to 2 hours. By quantitatively analyzing at the definite interval the amount of the compound of the present invention remaining in the liver S9 solution with HPLC (high performance liquid chromatography), etc., the constant of quenching velocity is calculated and the half life is calculated.
The reaction on river S9 of a rat was carried out on a 96-well plate by using a robot for screening by Tecan Company. S9 solution was prepared by adding to 10 ml of liver S9 of a rat, 20 ml of 250 mM Kpi (pH 7.4) and 20 ml of deionized water. Cofactor solution was prepared by dissolving NADPH (220 mg) in deionized water (40.5 ml) to give finally a 6 mM solution. IS (Internal Standard) solution was prepared by adding 300 μL of IS solution (1 mM DMSO solution) to 30 ml of acetonitrile solution (100 times dilution). The test compound (1 μM DMSO solution) was dissolved in an incubator at 37° C., 35 μL of it was poured into each well of a 96-well plate (24 samples/plate and then, plates (a sample plate, a 96 well-plate for dilution, deep well plates for reaction and recovering, a plate for extraction of the solid phase) and the test samples (S9 solution, Cofactor solution, IS (Internal Standard) solution, Stop solution, acetonitrile for elution) were set to the specified position in the booth of the robot. The reaction started (the concentration of the test compound was 1 μM) and the mixture was incubated at 37° C. under stirring. The solid phase was extracted and at the same time the internal standard for analysis was added. To the recovered sample (200 μL/well) was added 50 μL of acetonitrile per each well and to 2 plates of FALCON Deep well were poured 100 μL of the solution per well. By subjecting to the LC/MS analysis, the chromatogram of the test sample and the internal standard were described and the peak area was calculated. And then, the stability (residual rate after reaction) was calculated by the internal standard method.
Series [2] has as its system type 2 herpes virus (HSV-2). The series is described as follows: Anti HSV activity in mouse infected with HSV-2 in its vagina. Format: in vivo, BALB/c female mouse. The following applies: 9 days after virus-infection. The procedure: Compound A was spread to a vagina of a female mouse (BALB/c) to which previously Depo-Provera was administered, and on next day, HSV-2 was infected to the vagina. Nine days later, the rate of survival or death of mice was observed and compared.
On the back of a BALB/c female mouse (6 weeks old: Nippon SLC) 3 mg of Depo-Provera/mouse (Registered Trade Mark) was dermally administered and the mice were fed for 6 days. By doing this the sexual cycle was tuned and the sensitivity between mice to herpes virus was balanced. The slime of mouse vagina was removed by a cotton swab for baby, and the ointment (20 mg) containing 0.5% of compound of Example 20 or the ointment (10 mg) containing 5% of compound of Example 20 was spread to the vagina (corresponding 0.1 mg and 0.5 mg per mouse of the compound of Example). As a control, the placebo ointment not containing the compound was spread as well. As the ointment, the base consisting of 80% Vaseline and 20% liquid paraffin were used. On the next day, the slime of mouse vagina was removed by a cotton swab for baby and then, 2×10^4 pfu type 2 herpes virus (HSV-2)(10 μl/mouse) was administered to the vagina by pipette. After infection the death or survival of the mice was observed.

Where [3] appears, read: rat liver S9, test compound 1 μM.

Protocol for plasma esterase: The compound of the present invention is added to the serum solution, and the mixture is incubated at 37±0.5° C. for 5 minutes to 2 hours. By quantitatively analyzing at the definite interval the amount of the compound of the present invention remaining in the serum solution with HPLC (high performance liquid chromatography), etc., the constant of quenching velocity calculated and the half life is calculated.
The serum herein means the supernatant fraction obtained by excluding hemocytes and blood coagulation factor from blood by centrifugation, etc. The serum diluted with buffer, etc. can be used.
The metabolic stability of the test compound was presented by the residual amount (%) per the concentration of pre-metabolization.

For `CCC(=O)OCC(=O)[C@@]1(OC(=O)CC)[C@@H](C)C[C@H]2[C@@H]3CCC4=CC(=O)C=C[C@]4(C)[C@@]3(Cl)[C@@H](O)C[C@@]21C` [Beclometasone dipropionate], in the series on leucocytes in BALF, the “Acidophile (inhibition %)” value came out at 89%, the “Netrophile (inhibition %)” value is given as 90% and the “Number of total leukocyte (inhibition %)” value stood at 92%. In the series with IL-5, the “IL-5 production inhibition activity (inhibition % to control)” value worked out at 100%. Also, the “IL-4 production inhibition activity (inhibition % to control)” value in the series with IL-4 was 97%.

In the case of `CCCCOc1nc(N)c2[nH]c(=O)n(Cc3cccc(C(=O)OC)c3)c2n1` [Example 1, 2-Butoxy-8-hydroxy-9-(3-methoxycarbonylbenzyl)adenine], the minimal effective concentration in the series on cells of mouse spleen was under 0.001 µM; in the series on cells of rat spleen, 0.0003 µM. Further, the Residual rate is reported as 32% in the series on plasma esterase (test compound 10 μM) and 7% in series [1] (setting [3]).

With `CCCCOc1nc(N)c2nc(O)n(Cc3ccc(C(=O)OC)o3)c2n1` [Example 15, 2-Butoxy-8-hydroxy-9-(5-methoxycarbonylfurfuryl)adenine], in the series on cells of mouse spleen, the minimal effective concentration came out at 0.003 µM. The Residual rate in the series with plasma esterase (test compound 10 μM) is reported as 0%. Further, in the series on leucocytes in BALF, the “Acidophile (inhibition %)” value amounted to 101%, the “Netrophile (inhibition %)” value is −92% and the “Number of total leukocyte (inhibition %)” value came out at 84%. In addition, in the series with cells of rat spleen, the minimal effective concentration came out at 0.001 µM. The same compound came in with a Residual rate in series [1] (setting [3]) of 11%. In addition, the “IL-5 production inhibition activity (inhibition % to control)” value in the series on IL-5 is recorded as 75%. In addition, the “IL-4 production inhibition activity (inhibition % to control)” value in the series with IL-4 was 80%.

For `CCCCOc1nc(N)c2nc(O)n(Cc3ccc(C(=O)OC(C)C)o3)c2n1` [Example 16, 2-Butoxy-8-hydroxy-9-(5-isopropoxycarbonylfurfuryl)adenine], the minimal effective concentration in the series on cells of mouse spleen came to 0.003 µM. The Residual rate (in the series on plasma esterase (test compound 10 μM); in series [1] (setting [3])) was 0% each time.

For `CCCCOc1nc(N)c2nc(O)n(Cc3ccc(CC(=O)OC)cc3)c2n1` [Example 20, 2-Butoxy-8-hydroxy-9-(4-methoxycarbonylmethylbenzyl)adenine], the minimal effective concentration was 0.003 µM in the series with cells of mouse spleen and 0.0001 µM in the series on cells of rat spleen. The survived rate in series [2] (5% ointment (0.5 mg per mouse) spread to vagina) is on record as 100%. Further, the “survived rate comparing with a control group” value in series [2] (ointments containing 0.5% and 5%) is “clearly higher survived rate”. Besides, the Residual rate (in the series with plasma esterase (test compound 10 μM); in series [1] (setting [3])) was 0% throughout.

Regarding `CCCCOc1nc(N)c2nc(O)n(Cc3ccc(CC(=O)OC(C)C)cc3)c2n1` [Example 21, 2-Butoxy-8-hydroxy-9-(4-isopropoxycarbonylmethylbenzyl)adenine], the minimal effective concentration in the series on cells of mouse spleen turned out to be 0.003 µM; with cells of rat spleen, 0.001 µM. Also, the Residual rate is given as 0* % with plasma esterase (test compound 1 μM (*)) and 26% in series [1] (setting [3]).

Turning to `COC(=O)Cc1nc(N)c2nc(O)n(Cc3ccccc3)c2n1` [Example 29, 9-Benzyl-8-hydroxy-2-methoxycarbonylmethyladenine], the minimal effective concentration in the series on cells of mouse spleen and with cells of rat spleen was 0.01 µM in each case. Further, the Residual rate in the series on plasma esterase (test compound 10 μM) came out at 0%.

Take `CCOC(=O)Cc1nc(N)c2nc(O)n(Cc3ccccc3)c2n1` [Example 30, 9-Benzyl-2-ethoxycarbonylmethyl-8-hydroxyadenine]: the minimal effective concentration in the series with cells of mouse spleen and with cells of rat spleen was 0.01 µM throughout. Also, the Residual rate in the series on plasma esterase (test compound 10 μM) is reported as 0%; in series [1] (setting [3]), 4%.

As to `COC(=O)OCCNc1nc(N)c2nc(O)n(Cc3ccc(C)nc3)c2n1` [Example 34, 8-Hydroxy-2-(2-methoxycarbonyloxyethylamino)-9-{(6-methyl-3-pyridyl)methyl}adenine], the minimal effective concentration with cells of mouse spleen is 0.1 µM. Besides, the Residual rate in the series with plasma esterase (test compound 10 μM) is reported as 11%; in series [1] (rat liver S9, test compound 10 μM (*)), 1* %.

With `COC(=O)CSc1nc(N)c2nc(O)n(Cc3ccccc3)c2n1` [Example 40, 9-Benzyl-8-hydroxy-2-(methoxycarbonylmethyl)thioadenine], the minimal effective concentration with cells of mouse spleen and in the series on cells of rat spleen was 0.01 µM each time. In the series with plasma esterase (test compound 10 μM), this compound registered a Residual rate of 0%.

Turning to `Nc1nc(SCC(=O)OCC(F)(F)F)nc2c1nc(O)n2Cc1ccccc1` [Example 48, 9-Benzyl-2-(2,2,2-trifluoroethoxycarbonylmetyl)thio-8-hydroxyadenine], in the series on cells of mouse spleen, the “Minimum effective concentration (interferon inducing activity)” value was found to be 0.3 µM. Moreover, the Residual rate (with plasma esterase (test compound 10 μM); in series [1] (setting [3])) was 0% each time.

Turning to `CCOC(=O)C(C)Sc1nc(N)c2nc(O)n(Cc3ccccc3)c2n1` (centres unmarked) [Example 53, 9-Benzyl-8-hydroxy-2-(1-ethoxycarbonylethyl)thioadenine], in the series on cells of mouse spleen, the minimal effective concentration is 0.1 µM. Also, the Residual rate came to 0% in the series with plasma esterase (test compound 10 μM) and 2% in series [1] (setting [3]).

With `COC(=O)CCSc1nc(N)c2nc(O)n(Cc3ccccc3)c2n1` [Example 54, 9-Benzyl-8-hydroxy-2-(2-methoxycarbonylethyl)thioadenine], the minimal effective concentration worked out at 0.1 µM in the series on cells of mouse spleen and 0.01 µM in the series on cells of rat spleen. In the series on plasma esterase (test compound 10 μM), this compound returned a Residual rate of 0%.

`Nc1nc(SC2CCOC2=O)nc2c1nc(O)n2Cc1ccccc1` (centres unmarked) [Example 59, 9-Benzyl-2-(2-butyrolactino)thio-8-hydroxyadenine]: in the series on cells of mouse spleen, the “Minimum effective concentration (interferon inducing activity)” value was determined as 0.1 µM. Also, the Residual rate in the series with plasma esterase (test compound 10 μM) is recorded as 0%; in series [1] (setting [3]), 7%.
